Measured values as given in article PMC9133015 (Nature Communications, 2022).
Where “and” joins values, the source holds several entries; their conditions need not be identical. Identical values can stand only once.

Target: T1, DYRK2 (Homo sapiens, UniProt Q92630)
T1 construct: purchased Reaction Biology Corporation (assay service)
T1 sequence (Q92630 1-601): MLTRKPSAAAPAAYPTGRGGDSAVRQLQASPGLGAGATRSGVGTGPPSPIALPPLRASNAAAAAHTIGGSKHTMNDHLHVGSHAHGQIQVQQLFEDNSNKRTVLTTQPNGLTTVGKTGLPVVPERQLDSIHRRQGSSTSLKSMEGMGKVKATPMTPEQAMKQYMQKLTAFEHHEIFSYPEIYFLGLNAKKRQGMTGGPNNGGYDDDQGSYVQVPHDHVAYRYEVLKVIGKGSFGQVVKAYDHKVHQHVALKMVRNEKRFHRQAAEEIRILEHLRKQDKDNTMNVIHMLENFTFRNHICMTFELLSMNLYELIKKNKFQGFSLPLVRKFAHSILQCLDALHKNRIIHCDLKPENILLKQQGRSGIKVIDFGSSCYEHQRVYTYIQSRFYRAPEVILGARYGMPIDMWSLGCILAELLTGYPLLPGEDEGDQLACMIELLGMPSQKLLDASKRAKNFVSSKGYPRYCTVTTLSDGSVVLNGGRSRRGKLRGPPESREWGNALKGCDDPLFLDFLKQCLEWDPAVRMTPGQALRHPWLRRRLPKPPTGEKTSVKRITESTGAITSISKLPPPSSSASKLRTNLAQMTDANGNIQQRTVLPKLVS
Experiment: DYRKs kinase activity assay (33P-ATP, DYRKtide substrate): DYRK2
Assay type: biochemical
Details: for % Inhibition: DYRK2 kinase, duplicate values; for IC50: Supplementary Table 1, read-out: IC50 (μM), DYRK2 kinase

SMILES	% Inhibition (Conc. 0.000508053 µM)	% Inhibition (Conc. 0.00152416 µM)	% Inhibition (Conc. 0.00457247 µM)	% Inhibition (Conc. 0.0137174 µM)	% Inhibition (Conc. 0.0411523 µM)	% Inhibition (Conc. 0.123457 µM)	% Inhibition (Conc. 0.37037 µM)	% Inhibition (Conc. 1.11111 µM)	% Inhibition (Conc. 3.33333 µM)	% Inhibition (Conc. 10 µM)	IC50
COc1ccc(C2CC(c3ccc(Cl)cc3)=NN2c2ccc(C=NNc3ccccc3)cc2)cc1 (centres unmarked) [Compound 3]	1.91% and 4.22%	6.35% and 8.58%	2.63% and 4.93%	8.54% and 10.71%	6.26% and 8.49%	10.47% and 12.60%	12.78% and 14.86%	20.14% and 19.70%	22.94% and 20.08%	22.88% and 24.74%	> 10 µM
CCOC(=O)CC1=NN(c2ccccc2)C(=O)C1=c1sc(=C2Sc3ccccc3N2C)c(=O)n1CC [Compound 6]	-4.08% and 2.50%	1.60% and 6.11%	3.31% and 7.66%	5.42% and 7.24%	-2.71% and 2.20%	2.56% and 6.98%	3.14% and 5.17%	-1.20% and 3.57%	2.35% and 4.46%	7.66% and 11.60%	> 10 µM
Cc1ccc(CN(Cc2ccc(C=NNC(=O)c3c(C)nc4sccn34)o2)S(=O)(=O)c2ccc(C)cc2)cc1 [Compound 7]	-2.50% and -2.39%	-0.71% and 1.61%	3.49% and 3.33%	5.71% and 7.69%	-2.86% and -2.73%	2.70% and 2.58%	3.31% and 5.45%	-1.26% and -1.20%	2.47% and 2.36%	8.07% and 7.70%	> 10 µM

The remaining lines, values ahead:

% Inhibition (Conc. 0.000508053 µM)	% Inhibition (Conc. 0.00152416 µM)	% Inhibition (Conc. 0.00457247 µM)	% Inhibition (Conc. 0.0137174 µM)	% Inhibition (Conc. 0.0411523 µM)	% Inhibition (Conc. 0.123457 µM)	% Inhibition (Conc. 0.37037 µM)	% Inhibition (Conc. 1.11111 µM)	% Inhibition (Conc. 3.33333 µM)	% Inhibition (Conc. 10 µM)	IC50	SMILES
-1.87% and -4.38%	-4.34% and -6.85%	-8.65% and -6.11%	-12.64% and -10.09%	-8.55% and -6.02%	-2.02% and 0.35%	1.52% and 4.04%	8.35% and 5.81%	1.80% and 0.0379%	28.07% and 27.88%	> 10 µM	CC(C)c1ccc2c(c1)C(N1CCN(CCc3ccc(F)cc3)CC1)Cc1ccc(F)cc1S2 (centres unmarked) [Compound 1]
-5.36% and -2.56%	-6.00% and -8.80%	-4.71% and -7.51%	3.44% and 4.28%	3.20% and 5.16%	5.94% and 3.15%	4.61% and 6.29%	5.16% and 2.64%	1.41% and 4.21%	9.74% and 12.54%	> 10 µM	Cc1ccccc1C1C=C(c2ccccc2)OC(c2ccccc2)=C1C=NCCc1c[nH]c2ccccc12 (centres unmarked) [Compound 2]
0.98% and -1.30%	14.00% and 9.63%	3.52% and 1.28%	7.11% and 4.92%	13.04% and 8.66%	25.55% and 23.66%	22.22% and 20.28%	26.61% and 24.74%	20.66% and 23.29%	27.83% and 25.98%	> 10 µM	O=C(CSc1nnc2sc3ccccc3n12)N1CCN(C(=O)CSc2nnc3sc4ccccc4n23)CC1 [Compound 4]
1.24% and 7.59%	-1.11% and 5.39%	11.00% and 16.72%	2.77% and 9.02%	5.65% and 11.72%	2.54% and 8.81%	4.47% and 10.61%	17.84% and 23.14%	28.55% and 33.16%	29.52% and 31.99%	> 10 µM	CC(=NNc1nc2c(c(=O)n(Cc3ccccc3)c(=O)n2C)n1Cc1ccccc1)c1ccccc1 [Compound 5]
